Test results: PubChem BioAssay (NCI)
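Assay format: 96-well plates, 48-hour exposure. At the GI50, growth is halved. Definition used: TGI = concentration required for complete inhibition of growth.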

What was measured:
Assay in all cases: NCI tumour cell line growth inhibition, 48 h
786-0 renal = test system: 786-0 renal
UACC-257 melanoma = test system: UACC-257 melanoma
SF-295 CNS = test system: SF-295 CNS
SNB-19 CNS = test system: SNB-19 CNS
SF-539 CNS = test system: SF-539 CNS
HOP-92 NSCLC = test system: HOP-92 NSCLC
U251 CNS = test system: U251 CNS
MOLT-4 leukemia = test system: MOLT-4 leukemia
UO-31 renal = test system: UO-31 renal
NCI-H460 lung = test system: NCI-H460 lung

SMILES | GI50 (786-0 renal) [µM] | TGI (786-0 renal) [µM] | GI50 (UACC-257 melanoma) [µM] | TGI (UACC-257 melanoma) [µM] | GI50 (SF-295 CNS) [µM] | TGI (SF-295 CNS) [µM] | GI50 (SNB-19 CNS) [µM] | TGI (SNB-19 CNS) [µM] | GI50 (SF-539 CNS) [µM] | TGI (SF-539 CNS) [µM] | GI50 (HOP-92 NSCLC) [nM] | TGI (HOP-92 NSCLC) [µM] | GI50 (U251 CNS) [µM] | TGI (U251 CNS) [µM] | GI50 (MOLT-4 leukemia) [µM] | TGI (MOLT-4 leukemia) [µM] | GI50 (UO-31 renal) [µM] | TGI (UO-31 renal) [µM] | TGI (NCI-H460 lung) [µM] | GI50 (NCI-H460 lung) [µM]
N#CC1=C(N)NC(N2CCOCC2)=NC12Nc1ccccc1N2 | 13 | 40 | 22.9 | 49.1 | 32.6 | > 100 | 40 | > 100 | 36.3 | > 100 | > 100000 | > 100 | 52.6 | > 100 | 62.5 | > 100 | 12.5 | 81.4 | – | –
O=C(Nc1cccc(O)c1)C(=O)C(C(=O)c1ccc(Cl)c(Cl)c1)C1OC(=O)c2ccccc21 (stereo unspecified) | – | 26.4 | – | 55.6 | – | 62.6 | – | 37.8 | – | – | – | 53.8 | – | 21.3 | – | 29.2 | – | 27.1 | 27.5 | –
O=C1C(Cl)C(c2ccccc2O)N1n1cnc2ccccc2c1=O (stereo unspecified) | – | > 100 | – | > 100 | – | > 100 | – | > 100 | – | – | – | – | – | > 100 | – | > 100 | – | > 100 | > 100 | –
COc1cccc(NC(=O)c2sc3nc4c(cc3c2N)C(=O)CCC4)c1 | 0.366 | > 100 | – | – | 0.0818 | > 100 | 1.72 | > 100 | 0.108 | 0.587 | 48.2 | 26.8 | 0.158 | 10.4 | 0.553 | > 100 | 0.449 | > 100 | > 100 | 0.0953
O=c1[nH]c2cc(Cl)ccc2nc1/C(=N\O)C(O)c1ccc([N+](=O)[O-])cc1 (stereo unspecified) | – | > 100 | – | > 100 | – | > 100 | – | > 100 | – | > 100 | – | – | – | > 100 | – | > 100 | – | > 100 | > 100 | –
N#CCN/C=C\C(=O)c1ccc(Cl)cc1 | 33.4 | > 100 | 31.9 | > 100 | 28 | > 100 | 31.4 | > 100 | 27 | 68.3 | – | – | 70.7 | > 100 | 21.3 | > 100 | 42.1 | > 100 | > 100 | 42.1
CC(C)(C)C1CCC2c3c([nH]c4ccccc34)C3C(=O)N(c4ccccc4)C(=O)C3C2C1 (stereo unspecified) | – | 26 | – | – | – | 16.4 | – | 22.5 | – | 23.5 | – | – | – | 11 | – | 14 | – | 8.48 | 12.5 | –
Cc1cc(C)c(Cn2cnc3c(Cl)ncnc32)c(C)c1CCl | > 100 | > 100 | – | – | > 100 | > 100 | > 100 | > 100 | > 100 | > 100 | – | – | 2.77 | 45.4 | 23.3 | 63.4 | > 100 | > 100 | > 100 | 32.7
COc1cc(CNc2ccccc2C(=O)N2CCN(C(=O)c3cc(-c4cc(OC)c(OC)c(OC)c4)n4nc(-c5ccccc5)cc4n3)CC2)cc(OC)c1OC | 4.49 | > 100 | 4.97 | > 100 | – | – | 6.73 | > 100 | 2.54 | > 100 | – | – | 3.37 | 70.3 | 3.32 | > 100 | 1.54 | > 100 | > 100 | 3.32
Cn1c2ccc(Br)cc2c2c3c(c4c5ccccc5[nH]c4c21)C(=O)N(O)C3=O | 0.174 | 0.421 | – | – | 0.223 | 0.633 | 0.0777 | 0.696 | 0.073 | 0.217 | 89.3 | 0.451 | 0.0865 | 0.266 | 0.046 | 0.312 | 0.0917 | 0.308 | 0.182 | 0.04
O=Cc1ccc(-c2ccc(-c3nc4ccccc4o3)cc2)o1 | 24.4 | 92.8 | 92.3 | > 100 | 28 | 85 | > 100 | > 100 | 32.3 | > 100 | – | – | 25.4 | 88.1 | 52 | > 100 | 22.7 | 68.5 | > 100 | 39.6
Cc1cc(Cl)ccc1NC(=O)C(=O)C(C(=O)c1ccc2ccccc2c1)C1OC(=O)c2ccccc21 (stereo unspecified) | – | 22.1 | – | 47.8 | – | – | – | 18.3 | – | 17.4 | – | 34.5 | – | 21.2 | – | – | – | 31.5 | 60.8 | –
COC1=CC(=O)C2C(C1=O)C(c1ccccc1)[C@H]2C (stereo partly specified) | – | > 100 | – | – | – | > 100 | – | > 100 | – | > 100 | – | 49.4 | – | > 100 | – | > 10 | – | > 100 | > 100 | –
CCC(CNc1cc(OC)cc2cccnc12)NC1CCCCC1 (stereo unspecified) | 24 | 69.4 | 41.1 | > 100 | 17.3 | 45.8 | 89.7 | > 100 | 56.8 | > 100 | – | – | 43.3 | > 100 | 36 | > 100 | 4.47 | > 100 | 41 | 16.8
Cc1cn2c(/C=N/N=C(N)N)c(-c3cccs3)nc2s1 | 2.42 | 6.06 | 2.54 | 6.14 | 3.28 | 14.4 | 11.9 | 35.8 | 1.6 | 3.12 | – | – | 1.77 | 3.86 | 2.37 | 4.65 | 16.6 | 38.9 | 26.7 | 5.46
CN(Cc1cc(Cl)cc(Cl)c1)CC(C(=O)c1ccccc1)c1ccccc1 (stereo unspecified) | – | 10.4 | – | 14.9 | – | > 100 | – | > 53 | – | 23.2 | – | > 91.3 | – | 4.17 | – | – | – | 19.9 | > 100 | –
COc1cc(CNC2c3cc4c(cc3C(c3cc(OC)c(OC)c(OC)c3)[C@H]3C(=O)OCC23)OCO4)cc(OC)c1OC (stereo partly specified) | – | > 100 | – | > 100 | – | 0.677 | – | > 100 | – | 0.403 | – | > 100 | – | – | – | > 100 | – | > 100 | – | –
